Measured values taken from patent publication US7384961B2, “Saturated and unsaturated heteroarylcycloalkylmethyl amines as anti-depressants” (priority 2002, dated 2008).
Marks after values point to notes of the source that are not given here. Each block holds one compound with its values, some of them ahead of it.

Experiments:
mice [1] = test: Isolation-induced pup vocalization test in mice; format: in vivo; conditions: for ED50: sc, read-out: Change in vocalization frequency versus control, ED50 value
Description: d) Investigation of the Anxiolytic Action in the Isolation-Induced Pup Vocalization Test in Mice
The isolation-induced pup vocalization test in mice was used to investigate anxiolytic actions (Fish, E. W., Sekinda, M., Ferrari, P. F., Dirks, A., Miczek, K. A., Psychopharmacology, vol. 149, p. 277-285, (2000)). Litters of 7 to 13 mice were used for the testing. At the age of 7 days the animals were separated from the mother and placed in an incubation cage with an internal temperature of approx. 34° C. For determination of the vocalizations in the ultrasonic range, the animals were placed individually on a temperature-controlled platform (23 cm×23 cm, divided by a grid into fields of 2 cm×2 cm, 19±1° C.) of a soundproofed test chamber for a duration of 30 sec. The ultrasonic vocalizations were recorded with a high-frequency capacitor microphone, filtered, amplified, digitalized and plotted and analysed using commercial software. Only animals with pre-values of at least 6 vocalizations within 30 sec and a body weight of 3.5 to 5.5 g were employed for the testing. After subcutaneous (s.c.) injection of substance or vehicle, the animals were returned to the incubation cage for a duration of 10 min and then placed individually again on the temperature-controlled plate of the test chamber for a duration of 4 min. In addition to the number of vocalizations, crossings of the grid of the plate and body turns of the mice were determined to investigate influences of the substance on locomotor activity and coordination. Changes in the vocalization frequencies, crossings of the grid and body turns were stated relative to the vehicle control. A reduction in the vocalization frequency is described for anxiolytics.

NA re-uptake = target: T1, NA re-uptake (Rattus norvegicus, UniProt Q63380); test: Inhibition of NA re-uptake in rat brain synaptosomes (P2 fraction, hypothalamus); format: biochemical; conditions: 10 μmol/l
T1 construct: synaptosomes are freshly isolated from rat brain areas; from tissue; host or cells: rat brain synaptosomes (P2 fraction), hypothalamus
T1 sequence (Q63380 1-617): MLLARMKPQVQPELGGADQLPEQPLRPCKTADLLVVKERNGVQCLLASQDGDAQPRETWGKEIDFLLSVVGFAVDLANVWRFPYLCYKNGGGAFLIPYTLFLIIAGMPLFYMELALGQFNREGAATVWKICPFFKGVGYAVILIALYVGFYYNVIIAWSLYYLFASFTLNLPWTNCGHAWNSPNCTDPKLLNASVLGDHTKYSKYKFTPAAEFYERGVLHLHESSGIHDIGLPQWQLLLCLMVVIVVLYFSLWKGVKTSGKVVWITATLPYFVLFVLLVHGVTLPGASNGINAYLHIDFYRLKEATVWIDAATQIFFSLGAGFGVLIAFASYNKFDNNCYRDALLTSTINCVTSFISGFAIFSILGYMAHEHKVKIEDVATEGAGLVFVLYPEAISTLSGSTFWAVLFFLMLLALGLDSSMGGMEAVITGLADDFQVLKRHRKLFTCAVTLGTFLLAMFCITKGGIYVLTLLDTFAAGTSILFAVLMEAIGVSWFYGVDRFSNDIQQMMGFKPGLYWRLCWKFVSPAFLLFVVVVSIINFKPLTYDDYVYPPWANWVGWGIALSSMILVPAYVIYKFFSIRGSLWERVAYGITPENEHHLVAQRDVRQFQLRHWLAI
Source text: (§1) a) Investigations of the Inhibition of the Re-uptake of 5-HT and NA
(§2) In order to be able to carry out these in vitro studies, synaptosomes are freshly isolated from rat brain areas. […] These vesicular particles are isolated from the hypothalamus for the NA re-uptake and from the medulla +pons region of male rat brains for the 5-HT re-uptake.
(§3) The IC50 values were obtained with the aid of the “Figure P” computer program (version 6.0, Biosoft, Cambridge, England). […] The “Ligand” computer program (version 4, Biosoft, England) was used to obtain KD values.

mice [2] = test: Formalin test in mice (analgesic action, chronic pain component); format: in vivo; conditions: for ED50: Mus musculus, read-out: Inhibition of the nociceptive behaviour versus control, ED50 value
Description: b) Investigations of the Analgesic Actions in the Formalin Test in Mice
The formalin test (Dubuisson, D. and Dennis, S. G., 1977, Pain, 4, 161-174) represents a model of acute and chronic pain. The chronic pain component was evaluated in the investigations described here.
A biphase nociceptive reaction which is recorded by observing three behaviour patterns which can be clearly differentiated from one another is induced in freely mobile test animals by a single formalin injection into the dorsal side of a hind paw.
Formalin is administered subcutaneously into the dorsal side of the right hind paw of each animal in a volume of 20 μl and a concentration of 1%.
The specific changes in behaviour which differ from the normal behaviour (score 0), such as raising (score 1) and shaking the paw (score 2) and biting and licking reactions (score 3), are observed and recorded continuously at component intervals of 3 min for up to 60 min after the administration of formalin. The changes in behaviour are weighted in different ways (score 0-3) and a pain rate (PR) is calculated using the following formula: PR=[(T0×0)+(T1×1)+(T2×2)+(T3×3)]/180.
The group size is 10 animals (n=10).
On the basis of the PR calculations, the action of the substance was determined as the change from a control in percent. The ED50 was determined by means of regression analysis.

mice [3] = test: Forced swimming test (Porsolt test) in mice; format: in vivo; conditions: for Change in immobility phase versus control: 2.15 mg/kg i.p., mice
Description: c) Investigation of the Antidepressant Action in the Forced Swimming Test (Porsolt Test) in Mice
The investigations to determine the antidepressant action of the compounds of the formula I according to the invention were carried out in the forced swimming test (Porsolt test) in mice (Porsolt, R. et al., Arch. Int. Pharmacodyn. vol. 229, p. 327-336, (1977)). Male mice (20-25 g body weight) were placed individually for a period of 6 minutes in a shallow bowl of water from which they were unable to escape and were therefore forced to swim. After some time the animals gave up their swimming attempts and passed into an immobility phase. The duration of the immobility phase in the interval of 2-6 minutes after introduction of the animals was determined. The substance and vehicle groups each comprise 10 animals. Changes in the duration of the immobility phase are stated relative to the vehicle control. Differences versus the vehicle control are tested for significance with the aid of the Student's T test. Antidepressants induce a shortening of the immobility phase.

5-HT re-uptake = target: T2, 5-HT re-uptake (Rattus norvegicus, UniProt P31652); test: Inhibition of 5-HT re-uptake in rat brain synaptosomes (P2 fraction, medulla + pons); format: biochemical; conditions: 10 μmol/l
T2 construct: synaptosomes are freshly isolated from rat brain areas; from tissue; host or cells: rat brain synaptosomes (P2 fraction), medulla + pons region, male rats
T2 sequence (P31652 whole entry): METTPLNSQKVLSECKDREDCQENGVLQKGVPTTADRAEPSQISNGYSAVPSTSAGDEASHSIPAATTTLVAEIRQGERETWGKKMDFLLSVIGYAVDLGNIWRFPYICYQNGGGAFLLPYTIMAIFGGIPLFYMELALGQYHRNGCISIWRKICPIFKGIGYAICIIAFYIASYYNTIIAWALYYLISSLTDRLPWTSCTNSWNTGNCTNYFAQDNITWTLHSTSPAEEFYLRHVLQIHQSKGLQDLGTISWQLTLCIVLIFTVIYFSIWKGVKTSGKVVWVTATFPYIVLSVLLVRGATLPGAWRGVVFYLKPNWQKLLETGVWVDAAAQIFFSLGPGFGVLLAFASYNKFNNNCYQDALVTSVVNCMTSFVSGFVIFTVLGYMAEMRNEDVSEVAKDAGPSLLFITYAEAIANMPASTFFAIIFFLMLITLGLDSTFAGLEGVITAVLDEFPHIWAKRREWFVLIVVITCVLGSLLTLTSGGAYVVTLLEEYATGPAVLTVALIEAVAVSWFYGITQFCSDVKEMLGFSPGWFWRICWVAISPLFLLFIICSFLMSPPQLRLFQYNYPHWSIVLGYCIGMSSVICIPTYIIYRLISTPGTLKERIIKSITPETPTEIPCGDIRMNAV
Source text: as §1, §2, §3

Change in body turns, maximum change (mice [1]; dose range 0.56-10 mg/kg s.c.): +397% (s.) | Change in grid crossings, maximum change (mice [1]; dose range 0.56-10 mg/kg s.c.): +66% (n.s.)
SMILES: CN(C)CCCC1(c2ccc(F)cc2)OCc2cc(C#N)ccc21 (stereo not shown) [Citalopram, citalopram]
ED50 (mice [1]; mouse pups): 1.2 mg/kg

SMILES: COc1ccc(C(CN(C)C)C2(O)CCCCC2)cc1 (stereo not shown) [venlafaxine, reference compound]
inhibition at 10 µM (NA re-uptake): 92% | ED50 (mice [2]; iv): 2.6 mg/kg | Change in immobility phase versus control (mice [3]): −66%*** | ED50 (mice [1]; Mus musculus): 8.1 mg/kg | Change in body turns, maximum change (mice [1]; dose range 0.3-56 mg/kg s.c.): +141% (n.s.) | Change in grid crossings, maximum change (mice [1]; dose range 0.3-56 mg/kg s.c.): +92% (n.s.)

SMILES: CN(C)CC1=C(c2cccnc2)CCCC1.Cl.Cl [Example 1, Dimethyl-(2-pyridin-3-yl-cyclohex-1-enylmethyl)amine dihydrochloride]
inhibition at 10 µM (5-HT re-uptake): 83% | inhibition at 10 µM (NA re-uptake): 35% | ED50 (mice [2]; iv): 1.66 mg/kg | Inhibition of the nociceptive behaviour (in words) (mice [2]; formalin test in mice): dose-dependent inhibition of the nociceptive behaviour | Change in immobility phase versus control (mice [3]): −54%*** | Shortening of the immobility phase (in words) (mice [3]; forced swimming test in mice): significant shortening of the immobility phase | Change in body turns, maximum change (mice [1]; dose range 1.0-17 mg/kg s.c.): +233% (n.s.) | Change in grid crossings, maximum change (mice [1]; dose range 1.0-17 mg/kg s.c.): +32% (n.s.) | Changes in the crossings of the grid and body turns (in words) (mice [1]; locomotion and coordination): no significant changes in the crossings of the grid and body turns | Reduction in the vocalization frequency (in words) (mice [1]; pup vocalization test): significant reduction in the vocalization frequency | ED50 (mice [1]; mouse pups): 1.7 mg/kg

SMILES: CNCC[C@H](Oc1cccc2ccccc12)c1cccs1 [duloxetine, reference compound]
ED50 (mice [2]; ip): 6.69 mg/kg | Change in immobility phase versus control (mice [3]): −41%**
